Experimental data taken from paper PMC3610893, “The CouPSTU and TarPQM Transporters in Rhodopseudomonas palustris: Redundant, Promiscuous Uptake Systems for Lignin-Derived Aromatic Substrates” (PLoS ONE, 2013).
Where “and” joins values, the source holds several entries; their conditions need not be identical. Identical values can stand only once.

Legend:
[1] = molecular target: T1, TarP (RPA1782) periplasmic binding-protein (Rhodopseudomonas palustris, UniProt Q6N8X0); assay: Intrinsic tryptophan fluorescence spectroscopy / ligand titrations with TarP (RPA1782); conditions: for Quench of intrinsic tryptophan fluorescence of TarP (RPA1782): equimolar protein and ligand (0.2 µM), excitation 280 nm
T1 sequence (Q6N8X0 20-336): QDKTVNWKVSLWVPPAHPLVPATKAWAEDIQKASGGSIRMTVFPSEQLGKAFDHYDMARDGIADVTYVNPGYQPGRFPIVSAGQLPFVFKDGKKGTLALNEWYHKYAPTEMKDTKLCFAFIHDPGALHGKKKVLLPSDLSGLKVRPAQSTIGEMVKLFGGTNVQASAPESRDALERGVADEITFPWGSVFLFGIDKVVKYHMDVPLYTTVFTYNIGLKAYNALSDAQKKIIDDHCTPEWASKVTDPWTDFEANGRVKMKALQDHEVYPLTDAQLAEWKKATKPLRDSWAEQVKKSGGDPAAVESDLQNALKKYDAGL
Protocol: (§1) Pure protein was unfolded by dialysis against 1 L of 6 M urea for 16 hours at 4°C. Refolding was effected by dialysis against 2 L of refolding buffer (50 mM Tris-HCl pH 7.2 plus 100 mM NaCl) for 8 hours, the buffer being changed every 2 hours with a final overnight dialysis. Once removed from the dialysis tubing, protein was centrifuged (13,000×g, 10 mins, 4°C) to remove any precipitated misfolded protein.
(§2) Changes in the UV fluorescence of intrinsic tryptophan residues in RPA1782 and RPA1789 were measured using a Cary Eclipse fluorimeter (Varian Ltd, UK) in 10 mM Tris-HCl buffer pH 7.4 at 30°C in a 3 ml volume. Excitation of samples was at 280 nm (5 nm slit width) and emission was recorded at 300–400 nm (20 nm slit width). Ligand titrations were performed with 0.2 µM protein with λex 280 nm λem 340 nm using 5 nm excitation and 20 nm emission slit widths respectively. Except where indicated, data from three independent titrations was used to calculate K d values, by fitting to the quadratic equation for tight binding as previously described.

[2] = molecular target: T2, CouP (RPA1789) periplasmic binding-protein (Rhodopseudomonas palustris, UniProt Q6N8W4); assay: Intrinsic tryptophan fluorescence spectroscopy / ligand titrations with CouP (RPA1789); conditions: for Quench of intrinsic tryptophan fluorescence of CouP (RPA1789): 0.2 µM ligand added to 0.2 µM protein (equimolar), excitation 280 nm; for K d with CouP that was not urea treated, relative to refolded protein: fluorescence titrations, CouP not urea treated (endogenous ligand not removed), fold higher
T2 sequence (Q6N8W4 27-385): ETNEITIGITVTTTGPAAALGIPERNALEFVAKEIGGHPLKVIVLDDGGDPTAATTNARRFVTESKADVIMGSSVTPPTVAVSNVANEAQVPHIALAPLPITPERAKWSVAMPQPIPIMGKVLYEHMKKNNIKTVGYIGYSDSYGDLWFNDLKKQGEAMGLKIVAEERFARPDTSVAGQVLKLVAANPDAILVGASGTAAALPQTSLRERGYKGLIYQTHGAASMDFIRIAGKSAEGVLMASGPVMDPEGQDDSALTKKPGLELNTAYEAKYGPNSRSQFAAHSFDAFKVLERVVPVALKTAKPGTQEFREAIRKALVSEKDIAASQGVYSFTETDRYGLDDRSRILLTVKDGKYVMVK
Protocol: as §1, §2

[3] = molecular target: T3, CouP (RPA1789) (Rhodopseudomonas palustris, UniProt Q6N8W4); assay: Isothermal titration calorimetry (ITC) with RPA1789; format: binding
T3 sequence (Q6N8W4 27-385): T2 sequence (Q6N8W4 27-385)
Protocol: ITC experiments were carried out using a VP-ITC calorimeter (Microcal, Inc., UK). Ligand stock solutions for ITC experiments were made up in aliquots of the final refolding buffer that RPA1789 was dialysed against (50 mM Tris-HCl pH 7.2 plus 100 mM NaCl) and all reactions used the same buffer. The reaction cell contained 1.8 ml of 50 µM protein in refolding buffer. Ligand titrations were carried out at 20°C (except caffeate which was carried out at 25°C) by the injection of 20×15 µl aliquots of 400 µM ligand, from a 300 µl syringe, for a duration of 35 seconds at 7 minute intervals. After taking into account the baseline and any heats of dilution by the ligand, all titrations were integrated using the ORIGIN software programme associated with the calorimeter then exported to in-house numerical routines for data fitting to the Weissman isotherm.

[4] = molecular target: RPA1789; set-up: method as in PMID 22577139; conditions: read-out: K d for RPA1789 by ITC (literature); cited from earlier work
[5] = molecular target: T2, CouP (RPA1789) periplasmic binding-protein; assay: Intrinsic tryptophan fluorescence spectroscopy / ligand titrations with CouP (RPA1789); conditions: CouP not urea treated (endogenous ligand not removed)
[6] = ITC, 20°C, 50 µM protein, 50 mM Tris-HCl pH 7.2 plus 100 mM NaCl

SMILES | Binding to TarP (RPA1782), fluorescence screen ([1]; equimolar protein and ligand) | Quench of intrinsic tryptophan fluorescence of CouP (RPA1789) [2] | Binding to CouP (RPA1789) ([2]; fluorescence) | Kd [1] | Quench of intrinsic tryptophan fluorescence of TarP (RPA1782) [1] [%] | n (ligand binding stoichiometry) ([3]; ITC, 20°C) | ΔHdil (heats of dilution of the ligands) ([3]; ITC, 20°C) [kcal/mol] | ΔS (binding entropy) ([3]; ITC, 20°C) [cal mol^−1 K^−1] | ΔH (binding enthalpy) [3, 6] | Kd [2] [nM] | K d with CouP that was not urea treated, relative to refolded protein [2] | Kd [3] [nM] | n (ligand binding stoichiometry) ([3]; ITC, 25°C) | ΔH (binding enthalpy) ([3]; ITC, 25°C) [kcal/mol] | ΔHdil (heats of dilution of the ligands) ([3]; ITC, 25°C) [kcal/mol] | ΔS (binding entropy) ([3]; ITC, 25°C) [cal mol^−1 K^−1] | Kd [4] [nM] | ΔHbind (less favourable enthalpy of binding) ([3]; ITC, CouP, compared with ligands bearing the 4-OH group) [kcal/mol] | Binding to CouP that was not urea treated [5]
O=C(O)c1ccc(O)cc1 [4-hydroxybenzoate] | no evidence of binding | did not produce any fluorescence change | no evidence of binding | – | – | – | – | – | – | – | – | – | – | – | – | – | – | – | –
COc1cc(/C=C/C(=O)O)ccc1O [Ferulate, (E)-3-(4-hydroxy-3-methoxyphenyl)-2-propenoic acid] | – | 25–50% | – | 15 ± 3 nM | ~5 | 0.803±0.002 | -0.24 | 43 | 3.18 ± 0.03 kcal/mol | 15 ± 6 | 200-1,000 fold | – | – | – | – | – | – | – | –
O=C(O)/C=C/c1ccc(O)c(O)c1 [Caffeate, (E)-3-(3,4-dihydroxyphenyl)-2-propenoic acid] | – | 25–50% | – | 14 ± 7 nM | ~5 | – | – | – | negligible enthalpy of binding | 2.4 ± 0.8 | 200-1,000 fold | 27 ± 0.07 | 0.776±0.005 | 1.78 ± 0.05 | -0.28 | 40 | – | – | –
O=C(O)/C=C/c1ccc(O)cc1 [Coumarate, (E)-3-(4-hydroxyphenyl)-2-propenoic acid] | – | ~30% and 25–50% | – | 8 ± 5 nM | ~5 | 0.993±0.003 | -0.26 | 46 | 3.23 ± 0.03 kcal/mol | 2.6 ± 0.09 | 200-1,000 fold | – | – | – | – | – | 8600 | – | –
COc1cc(C=CC(=O)O)cc(OC)c1O [sinapate, 3-(4-hydroxy-3,5-dimethoxyphenyl)-2-propenoic acid] | – | ~5% | – | – | – | – | – | – | – | – | – | – | – | – | – | – | – | – | –
O=C(O)/C=C/c1ccccc1 [Cinnamate, (E)-3-phenyl-2-propenoic acid] | – | 25–50% | – | 50 nM and 33 nM | ~5 | 0.757±0.003 | -0.43 | 56 | 7.45 ± 0.08 kcal/mol | 88 ± 8 | – | – | – | – | – | – | – | > 4 | no evidence for cinnamate binding
